Test results taken from ChEMBL document CHEMBL4627246, “Pyroglutamide-Based P2X7 Receptor Antagonists Targeting Inflammatory Bowel Disease” (J Med Chem, 2020).

Legend:
Assay type in all cases: cell-based
[1] = test system: M14; assay: Cytotoxicity against human M14 cells assessed as effect on cell growth at 10 uM incubated for 48 hrs by sulforhodamine B assay; conditions: m14, 48 h
[2] = test system: OVCAR-8; assay: Cytotoxicity against human OVCAR8 cells assessed as effect on cell growth at 10 uM incubated for 48 hrs by sulforhodamine B assay; conditions: ovcar-8, 48 h
[3] = test system: SK-MEL-2; assay: Cytotoxicity against human SK-MEL-2 cells assessed as effect on cell growth at 10 uM incubated for 48 hrs by sulforhodamine B assay; conditions: sk-mel-2, 48 h
[4] = test system: COLO 205; assay: Cytotoxicity against human COLO205 cells assessed as effect on cell growth at 10 uM incubated for 48 hrs by sulforhodamine B assay; conditions: colo 205, 48 h
[5] = test system: RXF 393; assay: Cytotoxicity against human RXF393 cells assessed as effect on cell growth at 10 uM incubated for 48 hrs by sulforhodamine B assay; conditions: rxf 393, 48 h
[6] = test system: SF-539; assay: Cytotoxicity against human SF539 cells assessed as effect on cell growth at 10 uM incubated for 48 hrs by sulforhodamine B assay; conditions: sf-539, 48 h
[7] = test system: A549; assay: Cytotoxicity against human A549/ATCC cells assessed as effect on cell growth at 10 uM incubated for 48 hrs by sulforhodamine B assay; conditions: a549, 48 h
[8] = test system: MDA-MB-231; assay: Cytotoxicity against human MDA-MB-231 cells assessed as effect on cell growth at 10 uM incubated for 48 hrs by sulforhodamine B assay; conditions: mda-mb-231, 48 h
[9] = test system: HCC 2998; assay: Cytotoxicity against human HCC2998 cells assessed as effect on cell growth at 10 uM incubated for 48 hrs by sulforhodamine B assay; conditions: hcc 2998, 48 h
[10] = test system: OVCAR-3; assay: Cytotoxicity against human OVCAR3 cells assessed as effect on cell growth at 10 uM incubated for 48 hrs by sulforhodamine B assay; conditions: ovcar-3, 48 h
[11] = test system: T47D; assay: Cytotoxicity against human T47D cells assessed as effect on cell growth at 10 uM incubated for 48 hrs by sulforhodamine B assay
[12] = test system: NCI/ADR-RES; assay: Cytotoxicity against human NCI/ADR-RES cells assessed as effect on cell growth at 10 uM incubated for 48 hrs by sulforhodamine B assay
[13] = test system: Malme-3M; assay: Cytotoxicity against human MALME-3M cells assessed as effect on cell growth at 10 uM incubated for 48 hrs by sulforhodamine B assay
[14] = test system: A498; assay: Cytotoxicity against human A498 cells assessed as effect on cell growth at 10 uM incubated for 48 hrs by sulforhodamine B assay; conditions: a498, 48 h
[15] = test system: K562; assay: Cytotoxicity against human K562 cells assessed as effect on cell growth at 10 uM incubated for 48 hrs by sulforhodamine B assay; conditions: k562, 48 h
[16] = test system: CCRF-CEM; assay: Cytotoxicity against human CCRF-CEM cells assessed as effect on cell growth at 10 uM incubated for 48 hrs by sulforhodamine B assay
[17] = test system: HOP-62; assay: Cytotoxicity against human HOP62 cells assessed as effect on cell growth at 10 uM incubated for 48 hrs by sulforhodamine B assay; conditions: hop-62, 48 h
[18] = test system: SF-295; assay: Cytotoxicity against human SF295 cells assessed as effect on cell growth at 10 uM incubated for 48 hrs by sulforhodamine B assay; conditions: sf-295, 48 h
[19] = test system: SK-MEL-28; assay: Cytotoxicity against human SK-MEL-28 cells assessed as effect on cell growth at 10 uM incubated for 48 hrs by sulforhodamine B assay; conditions: sk-mel-28, 48 h
[20] = test system: OVCAR-4; assay: Cytotoxicity against human OVCAR4 cells assessed as effect on cell growth at 10 uM incubated for 48 hrs by sulforhodamine B assay; conditions: ovcar-4, 48 h

Measured: Activity

O=C(NCc1ccc(Cl)cc1Cl)[C@@H]1CCC(=O)N1Cc1ccc(Cl)cc1
Non-Toxic: all assays above

O=C(NCc1ccc(Cl)cc1Cl)c1ccccn1
Non-Toxic: all assays above

COc1ccc(CNC(=O)[C@@H]2CCC(=O)N2Cc2ccc(Cl)cc2Cl)c(OC)c1
Non-Toxic: all assays above

CCCCCCN1C(=O)[C@@H]2C/C(=C\N(C)C)C(=O)N2C1N(C)C (stereo not given in full)
Non-Toxic: all assays above

CN1C(=O)CC[C@H]1C(=O)NCc1cccc(C(F)(F)F)c1Cl [GSK1482160]
Non-Toxic: all assays above

O=C(NCc1ccc(Cl)cc1Cl)[C@@H]1CCC(=O)N1c1ccccc1
Non-Toxic: all assays above

COc1ccc(NC(=O)[C@@H]2CCC(=O)N2)cc1OC
Non-Toxic: all assays above

CN1C(=O)CC[C@H]1C(=O)NCc1cc(C(F)(F)F)ccc1Cl
Non-Toxic: all assays above

O=C(NCc1ccc(Cl)cc1Cl)[C@@H]1CCC(=O)N1c1nccs1
Non-Toxic: all assays above

CN(C)/C=C1\C[C@H]2C(=O)N(/C(=C/N(C)C)c3ccncc3)C(N(C)C)N2C1=O (stereo not given in full)
Non-Toxic: all assays above

O=C1N[C@H](C(=O)NCc2ccc(Cl)cc2Cl)C/C1=N\O (stereo in doubt)
Non-Toxic: all assays above

O=C(NCc1ccc(Cl)cc1Cl)[C@@H]1CCC(=O)N1c1ccsc1
Non-Toxic: all assays above

O=C(NCc1ccccc1Cl)[C@@H]1CCC(=O)N1c1ccccc1
Non-Toxic: all assays above

CN(C)C(=O)[C@@H]1CCC(=O)N1
Non-Toxic: all assays above
